Measurements from US20230248785A1, “METHODS AND COMPOSITIONS FOR TREATING METABOLIC CONDITIONS” (BACTANA CORP., priority 2020, published 2023).

Test system: C57BL/6J mice on high-fat diet (prediabetes)
Test: Fasting blood glucose in prediabetic high-fat diet mice treated with FPZ, metformin or the combination (Example 6)
Assay type: in vivo
Settings: after 2 weeks of daily oral gavage, 100 mg/kg; control gavaged with water
Description: The study uses 29 C57BL/6J mice, which are placed on a high-fat diet and allowed to develop prediabetes. The mice are fasted for 16 h, and the fasting blood glucose levels are measured to be greater than 105 mg/dL. The mice are divided up into control and treatment groups, and they are treated daily for 7 weeks with either 100 mg/kg FPZ, 100 mg/kg metformin, or a combination of FPZ with metformin, given by oral gavage. Fasting blood glucose are recorded at 2, 4, and 7 weeks of treatment.

Question: `CN(C)C(=N)N=C(N)N` [metformin] was tested. Which “reduction in fasting blood glucose level compared to the control group” value did it give?
Answer: 24%
